Results published in patent US20130165396A1, “Apple Skin Extracts for Treating Cardiovascular Disease” (NATIONAL RESEARCH COUNCIL OF CANADA, priority 2010, published 2013).
Marks after values point to notes of the source that are not given here.

Key:
Assay type in all cases: biochemical
[1] = test system: LDL isolated from human plasma; experiment: TBARS assay, AAPH-induced LDL oxidation
Procedure: (§1) To remove the inherent antioxidants, purchased LDL was dialyzed using Fisherbrand cellulose dialysis tubing (type T3 membrane, Thermo Fisher Scientific Inc., Ottawa, ON, Canada) against PBS containing 0.138 M NaCl and 0.0027 M KCl (pH 7.4, at 25° C.) at 4° C. for 24 hours. The buffer was changed every six hours. The dialyzed LDL was immediately used or stored at −80° C. in the dark under nitrogen and used within two to three weeks. Protein content of the dialyzed LDL was measured by the Lowry's method (Lowry et al., J. Biol. Chem., 1951, 193: […]) using bovine serum albumin as the standard.
(§2) Two oxidation induction methods were used: copper sulfate and 2,2′-azobis(2-methylpropionamidine)dihydrochloride (AAPH). For both induction systems, 100 μg/mL of final LDL protein concentration was used. LDL was oxidized at the presence of 10 μM final concentration of Cu^2+and 5 mM final concentration of AAPH separately at 37° C. for 4 h in the dark. […] Oxidation was terminated by adding a 1:1 mixture of 1 mM solution of ethylenediaminetetraacetic acid (EDTA) and 1 mM solution of butylated hydroxytoluene (BHT).
(§3) Two main constituents of TAE and oleanolic acid, which is an isomer of ursolic acid, were also used to investigate the concentration-responsiveness. The same concentrations of Cu^2+ and AAPH were used and the oxidation was terminated by a 1:1 mixture of EDTA and BHT as explained earlier under this section.
(§4) TBARS were measured according to the method of Xu et al., J. Food Sci., 2007, 72: S522-S527 with slight modifications. […] The mixture was incubated at 95° C. for 30 min to develop a pink chromogen. After cooling to room temperature tubes were centrifuged at 1500 g for 15 min and the fluorescence was measured using the FLUOstar OPTIMA plate reader (BMG Labtech Inc. Canada). Excitation and emission wavelengths used were 532 and 590 nm, respectively. TBARS activity was expressed as the percent inhibition (Equation 1) of LDL oxidation with comparison to the positive control, where F is fluorescence:
(§5) Percent inhibition (%)=100(Fpositive control−Fsample)/(Fpositive control) (1)

[2] = test system: LDL isolated from human plasma; experiment: TBARS assay, Cu2+-induced LDL oxidation
Procedure: as §1, §2, §3, §4, §5

[3] = test system: LDL isolated from human plasma; experiment: In vitro LDL oxidation inhibition, statements covering both induction systems or both product types; details: 5-50 mg L^−1
Procedure: as §2, §3
TBARS were measured according to the method of Xu et al., J. Food Sci., 2007, 72: S522-S527 with slight modifications. […]. The mixture was incubated at 95° C. for 30 min to develop a pink chromogen. After cooling to room temperature tubes were centrifuged at 1500 g for 15 min and the fluorescence was measured using the FLUOstar OPTIMA plate reader (BMG Labtech Inc. Canada). Excitation and emission wavelengths used were 532 and 590 nm, respectively. TBARS activity was expressed as the percent inhibition (Equation 1) of LDL oxidation with comparison to the positive control, where F is fluorescence:
The formation of hydroperoxides was measured by the lipid compatible formulation of the Peroxoquant™ quantitative peroxide assay kit. LDL oxidation was induced by Cu^2+ or AAPH and incubated for 4 hrs at 37° C. in the dark. Hydroperoxides were measured following the manufacturer's instructions. Absorbance was measured at 595 nm using FLUOstar OPTIMA plate reader (BMG Labtech, Durham, N.C., USA). Activity of hydroperoxides was expressed as the percent inhibition of LDL with comparison to the positive control (Equation 1).

[4] = 50 mg L^−1, comparison of constituent compounds and metabolites (Table 4)

| SMILES | Percent inhibition of secondary LDL oxidation products, AAPH induction [1, 4] | Percent inhibition of secondary LDL oxidation products, Cu induction [2, 4] | Percent inhibition of secondary LDL oxidation products, AAPH induction ([1]; 1 mg L^−1) | Percent inhibition of secondary LDL oxidation products, AAPH induction ([1]; 10 mg L^−1) | Percent inhibition of secondary LDL oxidation products, AAPH induction ([1]; 50 mg L^−1) | Percent inhibition of secondary LDL oxidation products, Cu induction ([2]; 1 mg L^−1) | Percent inhibition of secondary LDL oxidation products, AAPH induction ([1]; 100 mg L^−1) | Percent inhibition of secondary LDL oxidation products, AAPH induction ([1]; 200 mg L^−1) | Percent inhibition of secondary LDL oxidation products, AAPH induction ([1]; 300 mg L^−1) | Percent inhibition of secondary LDL oxidation products, AAPH induction ([1]; 400 mg L^−1) | Percent inhibition of secondary LDL oxidation products, AAPH induction ([1]; 500 mg L^−1) | Percent inhibition of secondary LDL oxidation products, Cu induction ([2]; 10 mg L^−1) | Percent inhibition of secondary LDL oxidation products, Cu induction ([2]; 50 mg L^−1) | Percent inhibition of secondary LDL oxidation products, Cu induction ([2]; 100 mg L^−1) | Percent inhibition of secondary LDL oxidation products, Cu induction ([2]; 200 mg L^−1) | Percent inhibition of secondary LDL oxidation products, Cu induction ([2]; 300 mg L^−1) | Percent inhibition of secondary LDL oxidation products, Cu induction ([2]; 400 mg L^−1) | Percent inhibition of secondary LDL oxidation products, Cu induction ([2]; 500 mg L^−1) | further results |
| --- | --- | --- | --- | --- | --- | --- | --- | --- | --- | --- | --- | --- | --- | --- | --- | --- | --- | --- | --- |
| O=C(/C=C/c1ccc(O)c(O)c1)O[C@@H]1C[C@](O)(C(=O)O)C[C@@H](O)[C@H]1O [Chlorogenic acid] | 100.18 ± 3.29^b % | 126.30 ± 1.45^a % |  |  |  |  |  |  |  |  |  |  |  |  |  |  |  |  |  |
| O=c1c(O)c(-c2ccc(O)c(O)c2)oc2cc(O)cc(O)c12 [Quercetin] | 85.06 ± 1.23^c % |  | 66.41 ± 0.83^b % | 90.20 ± 0.63^a % | 91.90 ± 0.69^a % | 85.87 ± 1.55^b % |  |  |  |  |  |  |  |  |  |  |  |  | Percent inhibition of secondary LDL oxidation products, AAPH induction ([1]; 0.0005 mg L^−1): 13.41 ± 0.67^e %; Percent inhibition of secondary LDL oxidation products, AAPH induction ([1]; 0.001 mg L^−1): 28.18 ± 2.19^d %; Percent inhibition of secondary LDL oxidation products, AAPH induction ([1]; 0.005 mg L^−1): 23.17 ± 1.48^d %; Percent inhibition of secondary LDL oxidation products, AAPH induction ([1]; 0.01 mg L^−1): 16.71 ± 1.18^e %; Percent inhibition of secondary LDL oxidation products, AAPH induction ([1]; 0.5 mg L^−1): 46.78 ± 0.85^c %; Percent inhibition of secondary LDL oxidation products, AAPH induction ([1]; 5 mg L^−1): 86.62 ± 2.00^a %; Percent inhibition of secondary LDL oxidation products, AAPH induction ([1]; 25 mg L^−1): 92.04 ± 0.51^a %; Protection for AAPH induced LDL oxidation ([1]; beyond 5 mg L^−1): more than 80%; Pro-oxidant effect (statement) [3]: did not show any pro-oxidant effect; Percent inhibition of secondary LDL oxidation products, Cu induction ([2]; 0.0005 mg L^−1): 13.97 ± 2.56^d %; Percent inhibition of secondary LDL oxidation products, Cu induction ([2]; 0.005 mg L^−1): 8.07 ± 3.33^de %; Percent inhibition of secondary LDL oxidation products, Cu induction ([2]; 0.01 mg L^−1): 4.62 ± 1.03^e %; Percent inhibition of secondary LDL oxidation products, Cu induction ([2]; 0.5 mg L^−1): 75.68 ± 1.31^c %; Protection for Cu2+ induced LDL oxidation ([2]; beyond 1 mg L^−1): more than 80% |
| OC[C@H]1O[C@@H](Oc2cc3c(O)cc(O)cc3[o+]c2-c2ccc(O)c(O)c2)[C@H](O)[C@@H](O)[C@H]1O [Cyanidin-3-O-galactoside] | 70.43 ± 1.23^d % | 104.31 ± 2.25^ab % |  |  |  |  |  |  |  |  |  |  |  |  |  |  |  |  | Cu2+-induced LDL oxidation (statement) ([2]; 50 mg L^−1): promising results |
| O=c1c(O)c(-c2ccc(O)c(OS(=O)(=O)O)c2)oc2cc(O)cc(O)c12 [Quercetin-3′-sulfate] | 59.63 ± 1.90^e % | 38.11 ± 1.84^de % |  |  |  |  |  |  |  |  |  |  |  |  |  |  |  |  |  |
| C[C@H]1[C@H](C)CC[C@]2(C(=O)O)CC[C@]3(C)C(=CC[C@@H]4[C@@]5(C)CC[C@H](O)C(C)(C)[C@@H]5CC[C@]43C)[C@H]12 [Ursolic acid] |  |  | −16.71 ± 1.72^d % | −16.51 ± 2.32^d % | 24.25 ± 2.54^c % | 7.10 ± 1.52^c % | 54.07 ± 2.88^b % | 49.91 ± 3.26^b % | 71.45 ± 5.14^a % | 54.20 ± 2.50^b % | 46.52 ± 2.39^b % | −5.10 ± 0.69^d % | 19.08 ± 2.59^c % | 16.73 ± 1.49^c % | 36.62 ± 5.69^a % | 34.93 ± 5.08^ab % | 42.45 ± 1.02^a % | 39.63 ± 3.85^a % | Concentration giving a greater protection against AAPH-induced LDL oxidation [1]: 300 mg/L; Inhibiting peroxyl-radical-induced LDL oxidation compared to corosolic and oleanolic acids (statement) [1]: more effective; Protection for AAPH-induced LDL oxidation ([1]; beyond 100 mg L^−1): more than 40%; Protection against Cu2+-induced LDL oxidation (statement) [2]: a certain degree of protection |
| C[C@H]1[C@H](C)CC[C@]2(C(=O)O)CC[C@]3(C)C(=CC[C@@H]4[C@@]5(C)C[C@@H](O)[C@H](O)C(C)(C)[C@@H]5CC[C@]43C)[C@H]12 [Corosolic acid] |  |  | 6.09 ± 1.83^d % | 5.69 ± 1.46^d % | 32.80 ± 5.49^bc % | −17.84 ± 5.15^ab % | 29.84 ± 2.89^c % | 45.49 ± 3.46^ab % | 47.55 ± 1.17^a % | 51.18 ± 1.73^a % | 46.63 ± 3.91^a % | 3.17 ± 4.20^a % | −6.04 ± 3.62^ab % | −24.94 ± 2.90^be % | −54.17 ± 5.21^d % | −49.93 ± 3.74^d % | −39.57 ± 3.91^cd % | −0.50 ± 5.98^a % | AAPH-induced LDL oxidation inhibition ([1]; greater than 200 mg L^−1): more than 40%; Protection against Cu2+-induced LDL oxidation (statement) [2]: did not show any protection |
| O=c1c(O[C@@H]2O[C@H](CO)[C@@H](O)[C@H](O)[C@H]2O)c(-c2ccc(O)c(O)c2)oc2cc(O)cc(O)c12 [Quercetin-3-O-glucoside] | 138.25 ± 1.97^a % | 104.13 ± 0.48^ab % |  |  |  |  |  |  |  |  |  |  |  |  |  |  |  |  |  |
| COc1cc(-c2oc3cc(O)cc(O)c3c(=O)c2OC2OC(C(=O)O)C(O)C(O)C2O)ccc1O (stereo not shown) [Isorhamnetin-3-glucuronic acid] | 51.79 ± 1.27^e % | 20.28 ± 1.49^e % |  |  |  |  |  |  |  |  |  |  |  |  |  |  |  |  |  |
| CC1(C)CC[C@]2(C(=O)O)CC[C@]3(C)C(=CC[C@@H]4[C@@]5(C)CC[C@H](O)C(C)(C)[C@@H]5CC[C@]43C)[C@@H]2C1 [Oleanolic acid] |  |  | 17.57 ± 8.28^b % | 31.90 ± 0.95^ab % | 37.43 ± 1.98^a % | 12.06 ± 2.46^a % | 30.69 ± 3.22^ab % | 16.75 ± 4.41^b % | 26.13 ± 3.09^ab % | 26.20 ± 4.41^ab % | 29.17 ± 1.58^ab % | −3.01 ± 3.42^ab % | 12.30 ± 2.73^a % | −13.37 ± 5.59^b % | −47.00 ± 3.05^c % | −94.49 ± 4.34^d % | −74.73 ± 5.82^d % | −78.32 ± 4.31^d % | Protection for AAPH-induced LDL oxidation ([1]; 10-100 mg L^−1): around 30% |
